Assay results: patent US20080318925A1 (ASTRAZENECA AB, priority 2007, published 2008)

Target: T1, GABAA2 receptors (α2, β3, γ3 receptor subunits transfected into Sf9 cells) (Homo sapiens, UniProt P47869+Q99928)
T1 construct: host or cells: Sf9 cells (membranes)
T1 sequence (P47869 29-451): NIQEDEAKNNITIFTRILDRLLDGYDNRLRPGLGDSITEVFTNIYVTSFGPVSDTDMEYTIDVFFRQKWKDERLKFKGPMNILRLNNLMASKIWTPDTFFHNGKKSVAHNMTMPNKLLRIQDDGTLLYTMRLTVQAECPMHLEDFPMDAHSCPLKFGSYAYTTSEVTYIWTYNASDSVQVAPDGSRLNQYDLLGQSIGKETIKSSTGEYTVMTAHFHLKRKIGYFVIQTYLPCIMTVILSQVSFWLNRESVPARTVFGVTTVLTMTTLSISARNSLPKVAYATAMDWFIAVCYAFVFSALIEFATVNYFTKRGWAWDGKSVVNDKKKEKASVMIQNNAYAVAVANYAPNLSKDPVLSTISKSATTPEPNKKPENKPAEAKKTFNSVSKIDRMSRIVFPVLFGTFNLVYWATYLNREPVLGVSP
T1 sequence (P28472 26-473 partner): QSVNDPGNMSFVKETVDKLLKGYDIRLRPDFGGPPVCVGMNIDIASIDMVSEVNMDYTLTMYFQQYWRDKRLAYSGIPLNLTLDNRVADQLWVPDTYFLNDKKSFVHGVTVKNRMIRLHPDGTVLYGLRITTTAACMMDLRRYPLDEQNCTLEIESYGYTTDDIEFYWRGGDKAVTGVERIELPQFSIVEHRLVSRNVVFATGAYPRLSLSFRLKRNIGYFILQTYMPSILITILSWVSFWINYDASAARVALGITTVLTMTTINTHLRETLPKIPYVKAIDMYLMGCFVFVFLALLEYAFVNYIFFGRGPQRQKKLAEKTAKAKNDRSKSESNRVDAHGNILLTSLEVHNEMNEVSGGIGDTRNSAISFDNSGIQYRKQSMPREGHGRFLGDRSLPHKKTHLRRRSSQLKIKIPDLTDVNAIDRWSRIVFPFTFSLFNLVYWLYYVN
T1 sequence (Q99928 18-467): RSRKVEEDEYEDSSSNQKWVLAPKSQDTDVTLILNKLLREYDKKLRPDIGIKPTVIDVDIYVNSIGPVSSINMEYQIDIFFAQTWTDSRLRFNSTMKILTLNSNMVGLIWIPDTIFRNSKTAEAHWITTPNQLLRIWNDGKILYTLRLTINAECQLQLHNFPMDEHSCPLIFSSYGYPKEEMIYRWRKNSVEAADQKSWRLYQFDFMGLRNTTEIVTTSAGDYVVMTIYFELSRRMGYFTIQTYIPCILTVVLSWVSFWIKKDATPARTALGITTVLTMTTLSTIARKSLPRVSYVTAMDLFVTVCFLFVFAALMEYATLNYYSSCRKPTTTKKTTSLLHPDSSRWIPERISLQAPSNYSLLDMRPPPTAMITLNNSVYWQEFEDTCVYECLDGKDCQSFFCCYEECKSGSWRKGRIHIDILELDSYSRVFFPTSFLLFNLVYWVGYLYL
Experiment: GABAA2 binding method ([3H]-flunitrazepam displacement)
Details: [3H]-flunitrazepam ~2 nM, Sf9 membranes, 1 hr at 4° C.
Procedure: In some embodiments, the binding test was directed to a subtype of GABAA receptors, such as GABAA1 receptors (i.e., those containing the α1 subunit), GABAA2 receptors (i.e., those containing the α2 subunit), GABAA3 receptors (i.e., those containing the α3 subunit) and GABAA5 receptors (i.e., those containing the α5 subunit).
• Assay and Wash Buffer: 50 mM Tris-Citrate, 200 mM NaCl, pH 7.8 Compounds at 10 mM in DMSO: Put 75 μl in column 1 of compound plate.
Flumazenil, 10 mM (for NSB)
[^3H]-Flunitrazepam (Cat #NET567): Prepare 10× stock=20 nM, [F} in assay=˜2 nM
1. […] Add 5 ul of 30 uM flumazenil to wells 12 D-E for 50% control wells.
2. Spot 2 μl of compound dilutions into dry plate (Automation Program 3). Manually spot 2 μl 10 mM flumazenil into wells 12 F-H for nonspecific control.
3. Make 1:100 dilution in assay buffer (2 μl into 200 μl) and dispense 25 μl compound into assay plates (Automation Program 4).
4. Dispense 200 μl membranes into assay plate (Automation Program 5).
5. Add 25 μl [^3H]-Flunitrazepam (Automation Program 6). Incubate for 1 hr at 4° C.
6. Collect membranes on a cell harvester onto GF/B filter plates (pre-wet with dH2O and wash 5× 400 μl/well, with cold assay buffer. (First 3 washes are considered hot; last two are cold.)
7. Dry plates for 2-3 hours at RT.
8. Add 40 μl Microscint 40/well (Automation Program 7); seal plates. Count on a TopCount.
Data is analyzed by calculating percent of control, IC50, and Ki in an XLfit template. The following formula is used in the templates: […]

Compound	Ki
CCCNC(=O)c1nnc2c(-c3ccc(OC)c(F)c3)c(F)ccc2c1N	2.88 nM
CCCNC(=O)c1nnc2c(-c3cccc(C)c3C)c(F)ccc2c1N	0.615 nM
CCCNC(=O)c1nnc2c(-c3cc(OC)cc(OC)c3)c(F)ccc2c1N	0.552 nM
CCCNC(=O)c1nnc2c(-c3ccc(OC)cc3F)cccc2c1N	4.17 nM
CCCNC(=O)c1nnc2c(-c3cc(C)ccc3C)c(F)ccc2c1N	1.31 nM
CCCNC(=O)c1nnc2c(-c3ccc(F)cc3OC)cccc2c1N	4.34 nM
CCNC(=O)c1nnc2c(-c3cnccc3OC)cccc2c1N	4.36 nM
CCCNC(=O)c1nnc2c(-c3ccc(OC)c(OC)c3OC)cccc2c1N	6.75 nM
CCCNC(=O)c1nnc2c(-c3cc(C)ccc3OC)c(F)ccc2c1N	0.937 nM
CCCNC(=O)c1nnc2c(-c3cnc(OC)c(Cl)c3)cccc2c1N	25.4 nM
CCCNC(=O)c1nnc2c(-c3cc(OC)ccc3F)cccc2c1N	1.73 nM
CCCNC(=O)c1nnc2c(-c3cc(F)ccc3OC)c(F)ccc2c1N	0.98 nM
CCCNC(=O)c1nnc2c(-c3cc(F)c(OC)cc3F)cccc2c1N	1.49 nM
CCCNC(=O)c1nnc2c(-c3ccc(OC)cc3C(F)(F)F)c(F)ccc2c1N	0.624 nM
CCCNC(=O)c1nnc2c(-c3cc(OC)ccc3OC)c(Cl)ccc2c1N	13.9 nM
CCCNC(=O)c1nnc2c(-c3cc(C(F)(F)F)ccc3Cl)cccc2c1N	1.36 nM
CCCNC(=O)c1nnc2c(-c3ccc(Cl)cc3)c(F)ccc2c1N	8.72 nM
CCNC(=O)c1nnc2c(-c3cnc(OC)nc3OC)cccc2c1N	14.4 nM
CCCNC(=O)c1nnc2c(-c3ccc4ccccc4c3)cccc2c1N	43.3 nM
CCNC(=O)c1nnc2c(-c3ccc(OC)cc3OC)cccc2c1N	4.54 nM
CCCNC(=O)c1nnc2c(-c3cc(OC)c(OC)c(OC)c3)cccc2c1N	56.5 nM

The next lines start with the values.

Ki	Compound
53.8 nM	CCCNC(=O)c1nnc2c(-c3cccc(C(=O)O)c3)cccc2c1N
2.6 nM	CCCNC(=O)c1nnc2c(-c3cccnc3)cccc2c1N
1.18 nM	CCCNC(=O)c1nnc2c(-c3cccc(C#N)c3)cccc2c1N
4.11 nM	CCCNC(=O)c1nnc2c(-c3ccc(C)nc3)cccc2c1N
12.3 nM	CCCNC(=O)c1nnc2c(-c3cccc(Cl)c3)cccc2c1N
20.2 nM	CCCNC(=O)c1nnc2c(-c3ccc(OC)c(F)c3)cccc2c1N
4.21 nM	CCCNC(=O)c1nnc2c(-c3cncc(OC)c3)cccc2c1N
1.68 nM	CCCNC(=O)c1nnc2c(-c3cnccc3C)cccc2c1N
4.34 nM	CCCNC(=O)c1nnc2c(-c3cccc(OC)c3)cccc2c1N
0.558 nM	CCCNC(=O)c1nnc2c(-c3cccc(F)c3F)cccc2c1N
1.67 nM	CCCNC(=O)c1nnc2c(-c3ccc(C)nc3F)cccc2c1N
1.72 nM	CCCNC(=O)c1nnc2c(-c3ccc(F)cc3F)cccc2c1N
18.6 nM	CCCNC(=O)c1nnc2c(-c3ccsc3)cccc2c1N
